# Source: ChEMBL document CHEMBL1201862, “PubChem BioAssay data set” (2004)
# Activity calls are given as the source filed them.
# Tests used:
# [1] = target: Protein Rev (Human immunodeficiency virus type 1 group M subtype B (isolate HXB2)(HIV-1), UniProt P04618); test: inhibitors of Rev binding to RRE RNA, dose response, biochemical, fluorescence polarization, HIV-1 (AID 434976); parameters: species or system Human immunodeficiency virus 1
# [2] = target: Female germline-specific tumor suppressor gld-1 (Caenorhabditis elegans, UniProt Q17339); test: inhibitors of GLD-1 binding to TGE RNA, dose response, biochemical, fluorescence polarization, C. elegans (AID 2802);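 note: fluorescence polarization of labeled TGE RNA bound by purified gld-1 protein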
# Female germline-specific tumor suppressor gld-1, sequence (Q17339 whole entry): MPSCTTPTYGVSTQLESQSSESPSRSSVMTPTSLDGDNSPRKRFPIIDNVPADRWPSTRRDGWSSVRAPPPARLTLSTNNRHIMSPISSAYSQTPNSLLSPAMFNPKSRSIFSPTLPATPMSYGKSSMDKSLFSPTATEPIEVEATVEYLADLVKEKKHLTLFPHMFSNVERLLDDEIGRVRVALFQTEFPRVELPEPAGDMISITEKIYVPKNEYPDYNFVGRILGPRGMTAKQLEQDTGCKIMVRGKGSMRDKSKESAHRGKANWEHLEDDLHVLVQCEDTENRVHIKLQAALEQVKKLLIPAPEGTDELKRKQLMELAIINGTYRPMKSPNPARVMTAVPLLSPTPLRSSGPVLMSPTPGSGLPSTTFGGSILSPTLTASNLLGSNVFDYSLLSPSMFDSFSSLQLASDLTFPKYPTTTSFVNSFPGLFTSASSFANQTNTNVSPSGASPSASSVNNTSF
# [3] = target: ORF 73 (Human herpesvirus 8, UniProt O40947); test: inhibitors of C-LANA binding to LBS DNA, dose response, biochemical, fluorescence polarization, cherry-picked samples (AID 504725); parameters: species or system Human gammaherpesvirus 8;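 note: fluorescence polarization of a labeled DNA duplex reporting LANA DNA binding; potency is for inhibitors that block LANA binding to the DNA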
# ORF 73, sequence (O40947 whole entry): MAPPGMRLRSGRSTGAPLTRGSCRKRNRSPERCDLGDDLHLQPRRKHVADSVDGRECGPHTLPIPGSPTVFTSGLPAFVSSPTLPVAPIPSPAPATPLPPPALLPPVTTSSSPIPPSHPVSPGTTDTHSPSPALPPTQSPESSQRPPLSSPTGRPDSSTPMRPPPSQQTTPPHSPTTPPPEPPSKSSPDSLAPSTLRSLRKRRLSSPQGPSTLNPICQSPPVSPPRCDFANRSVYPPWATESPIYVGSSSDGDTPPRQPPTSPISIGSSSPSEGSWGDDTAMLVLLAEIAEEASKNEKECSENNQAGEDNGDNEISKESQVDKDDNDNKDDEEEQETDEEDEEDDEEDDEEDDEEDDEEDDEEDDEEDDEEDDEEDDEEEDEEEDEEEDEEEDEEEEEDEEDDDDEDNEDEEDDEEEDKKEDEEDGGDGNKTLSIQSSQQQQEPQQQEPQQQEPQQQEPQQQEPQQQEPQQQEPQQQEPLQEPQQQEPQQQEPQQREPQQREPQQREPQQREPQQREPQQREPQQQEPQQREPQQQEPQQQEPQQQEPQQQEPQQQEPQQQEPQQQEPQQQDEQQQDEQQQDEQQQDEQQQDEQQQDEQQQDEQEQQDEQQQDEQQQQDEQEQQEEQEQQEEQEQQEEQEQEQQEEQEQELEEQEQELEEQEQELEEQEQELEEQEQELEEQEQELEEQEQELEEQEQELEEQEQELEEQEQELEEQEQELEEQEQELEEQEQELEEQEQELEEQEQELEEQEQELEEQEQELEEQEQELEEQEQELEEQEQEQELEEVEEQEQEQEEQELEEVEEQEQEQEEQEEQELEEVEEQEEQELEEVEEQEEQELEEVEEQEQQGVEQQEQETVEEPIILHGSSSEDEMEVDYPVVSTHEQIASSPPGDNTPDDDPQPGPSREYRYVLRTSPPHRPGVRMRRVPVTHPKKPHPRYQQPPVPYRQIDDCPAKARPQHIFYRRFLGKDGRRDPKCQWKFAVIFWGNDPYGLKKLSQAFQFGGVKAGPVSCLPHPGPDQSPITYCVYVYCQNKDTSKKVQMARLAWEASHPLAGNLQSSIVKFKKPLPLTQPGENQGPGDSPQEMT
# [4] = target: UDP-galactopyranose mutase (Mycobacterium tuberculosis, UniProt P9WIQ1); test: Inhibitors of Mycobacterium tuberculosis UDP-galactopyranose mutase (UGM) enzyme Measured in Biochemical System Using Plate Reader - 2105-02_Inhibitor_Dose_CherryPick_Activity. [Related pubchem assays (depositor defined):AID504439]
# [5] = target: Keap1/Nrf2 (Homo sapiens, UniProt Q14145); test: Keap1-Nrf2 protein-protein interaction inhibitors, dose response, biochemical, fluorescence polarization, cherry-picked samples (AID 588683)
# [6] = system: Jurkat; test: antigen receptor-induced NF-kB inhibitors, dose response, Jurkat, luciferase reporter, luminescence, B- and T-cell (AID 489004); type: functional, cell-based; conditions: Homo sapiens;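 note: NF-kB luciferase reporter Jurkat cells stimulated with PMA plus ionomycin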
# [7] = cytotoxicity in HEK-293T NF-kB-Luc cells, dose response, cytotoxicity control for B/T-cell NF-kB inhibitor project, cell-based, uHTS hits (AID 489019); type: functional;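 note: IC50 reflects cytotoxicity as loss of cell viability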
# [8] = system: INS1; test: beta cell apoptosis inhibitors, cytokine rescue, dose response, luminescence, retest (AID 449756); type: functional, cell-based; conditions: Rattus norvegicus;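 note: cell death triggered by IL-1 beta plus TNF-alpha plus IFN-gamma mixture; protective hits raise ATP signal compared with cytokine alone wells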
# [9] = Shn3 3'UTR reporter inhibitors, dose response, cell-based, Clone20 osteoblasts, firefly luciferase, cherry-picked (AID 624132); type: functional;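 note: firefly luciferase luminescence from reporter carrying the Shn3 3'UTR in osteoblasts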
# [10] = HepG2 cell cytotoxicity, dose response, cytotoxicity control for Shn3 inhibitor project, CellTiter-Glo, cherry-picked (AID 624134); type: functional, cell-based
# [11] = control 3'UTR Renilla luciferase suppression, dose response, counter-screen for Shn3 inhibitor project, cell-based, Clone20-Shn3RL, cherry-picked (AID 624133); type: functional
# [12] = target: T1, Galanin receptor type 3 (Homo sapiens, UniProt O60755); test: Fluorescence-based cell-based primary high throughput dose response assay to identify antagonists of the Galanin Receptor 3 (GalR3).; type: functional
# T1 sequence (O60755 whole entry): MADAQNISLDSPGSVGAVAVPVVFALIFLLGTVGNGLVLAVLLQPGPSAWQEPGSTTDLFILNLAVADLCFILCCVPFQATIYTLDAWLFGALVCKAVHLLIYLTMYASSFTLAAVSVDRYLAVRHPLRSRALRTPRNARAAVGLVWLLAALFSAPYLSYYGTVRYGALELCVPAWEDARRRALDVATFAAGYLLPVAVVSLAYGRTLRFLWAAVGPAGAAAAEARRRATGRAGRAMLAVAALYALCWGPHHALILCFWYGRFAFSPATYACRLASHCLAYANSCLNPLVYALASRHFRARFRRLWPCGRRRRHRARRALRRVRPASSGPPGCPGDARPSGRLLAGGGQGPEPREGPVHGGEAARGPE
# [13] = cells; type: functional, cell-based; conditions: HEK-CNG
# [14] = ZM109 Env clade C HIV-1 fusion inhibitors, dose response, HeLa effector, CEM target cells, luciferase, cherry-pick (AID 652058); type: functional, cell-based
# [15] = inhibitors of clade B AD8 Env fusion, dose response, cell-based, cherry-pick (AID 652062); type: functional;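 note: luciferase signal from cell-cell fusion driven by HIV-1 clade B AD8 Env; potency is for inhibitors of fusion seen as a drop in luminescence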
# [16] = target: Cytochrome P450 3A4 (Homo sapiens, UniProt P08684); conditions: Potency;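 note: confirmatory qHTS run detecting inhibitors and substrates of CYP3A4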
# [17] = target: Voltage-gated inwardly rectifying potassium channel KCNH2 (Homo sapiens, UniProt Q12809); conditions: Potency;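 note: confirmatory quantitative high-throughput screen measuring inhibition of hERG channel activity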
# Voltage-gated inwardly rectifying potassium channel KCNH2, sequence (Q12809 whole entry): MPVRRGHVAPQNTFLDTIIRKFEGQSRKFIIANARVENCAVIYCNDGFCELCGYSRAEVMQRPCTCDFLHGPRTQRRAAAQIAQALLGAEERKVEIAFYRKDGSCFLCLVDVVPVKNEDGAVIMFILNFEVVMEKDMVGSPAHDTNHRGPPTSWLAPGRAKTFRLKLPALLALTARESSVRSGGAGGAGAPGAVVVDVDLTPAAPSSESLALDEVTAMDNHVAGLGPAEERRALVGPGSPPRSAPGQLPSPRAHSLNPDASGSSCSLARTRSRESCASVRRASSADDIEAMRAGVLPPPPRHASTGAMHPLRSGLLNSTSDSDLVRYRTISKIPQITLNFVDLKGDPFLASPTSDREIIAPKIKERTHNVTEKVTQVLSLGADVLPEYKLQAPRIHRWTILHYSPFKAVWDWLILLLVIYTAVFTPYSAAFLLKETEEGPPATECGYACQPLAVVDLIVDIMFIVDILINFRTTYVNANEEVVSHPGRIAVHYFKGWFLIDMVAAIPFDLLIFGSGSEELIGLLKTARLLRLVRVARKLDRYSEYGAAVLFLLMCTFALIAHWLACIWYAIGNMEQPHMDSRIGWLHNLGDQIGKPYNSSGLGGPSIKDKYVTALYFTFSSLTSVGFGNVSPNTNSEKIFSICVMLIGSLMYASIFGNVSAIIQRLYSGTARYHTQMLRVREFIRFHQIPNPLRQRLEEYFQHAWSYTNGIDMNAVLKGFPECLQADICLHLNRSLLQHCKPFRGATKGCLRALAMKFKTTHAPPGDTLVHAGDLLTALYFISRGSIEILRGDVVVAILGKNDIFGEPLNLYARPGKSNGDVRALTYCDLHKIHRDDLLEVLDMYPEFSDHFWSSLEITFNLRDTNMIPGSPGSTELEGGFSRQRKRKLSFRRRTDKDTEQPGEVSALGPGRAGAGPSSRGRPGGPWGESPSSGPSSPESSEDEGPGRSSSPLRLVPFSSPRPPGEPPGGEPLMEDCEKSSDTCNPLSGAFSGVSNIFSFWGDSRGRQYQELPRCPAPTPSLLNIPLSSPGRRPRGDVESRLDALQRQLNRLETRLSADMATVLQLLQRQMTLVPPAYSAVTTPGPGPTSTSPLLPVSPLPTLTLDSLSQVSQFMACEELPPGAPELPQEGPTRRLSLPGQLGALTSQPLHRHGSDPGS
# [18] = Luminescence Cell-Based Dose Retest to Confirm Inhibitors of Cancer Stem Cells. [Related pubchem assays (depositor defined):AID2717, AID2721]; type: functional; conditions: Homo sapiens
# [19] = cytotoxicity in HMLE control line with eGFP shRNA, dose response, counter-screen for HMLE_sh_ECad selective toxicity project, cell-based, HMLE_sh_eGFP, luminescence (AID 463074); type: functional, Homo sapiens;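 note: HMLE human mammary epithelial cells expressing control shRNA against eGFP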
# [20] = system: INS1; test: protection from cytokine-induced mitochondrial depolarization, dose response, cell-based, INS-1E, JC-1 fluorescence ratio, dry powder (AID 488931); type: functional; conditions: Rattus norvegicus
# [21] = target: T2, Cytochrome P450 2D6 (Homo sapiens, UniProt P10635);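 note: CYP2D6 member of a cytochrome P450 panel assay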
# T2 sequence (P10635 whole entry): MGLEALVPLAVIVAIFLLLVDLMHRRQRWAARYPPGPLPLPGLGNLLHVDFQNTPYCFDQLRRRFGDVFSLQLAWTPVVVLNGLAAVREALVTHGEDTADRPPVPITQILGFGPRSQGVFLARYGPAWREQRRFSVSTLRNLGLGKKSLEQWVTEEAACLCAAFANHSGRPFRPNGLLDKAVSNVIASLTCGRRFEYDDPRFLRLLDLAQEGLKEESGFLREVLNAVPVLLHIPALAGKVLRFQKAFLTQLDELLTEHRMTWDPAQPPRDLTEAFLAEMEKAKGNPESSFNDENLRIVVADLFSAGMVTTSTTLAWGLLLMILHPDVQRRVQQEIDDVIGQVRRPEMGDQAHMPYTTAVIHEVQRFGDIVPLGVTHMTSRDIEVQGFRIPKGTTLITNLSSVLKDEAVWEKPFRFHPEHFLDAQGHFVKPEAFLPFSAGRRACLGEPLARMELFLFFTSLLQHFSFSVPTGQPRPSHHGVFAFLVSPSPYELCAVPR
# [22] = target: T2, Cytochrome P450 2D6; remark: listed apart in the source
# [23] = system: HEK293; test: NOD1 signaling inhibitors, primary screen, cell-based, luminescence, uHTS (AID 1578); type: functional; conditions: Homo sapiens
# [24] = system: Streptococcus sp. 'group A'; test: growth inhibition of control SK(-) GAS strain, dose response, counter-screen for streptokinase expression inhibitor project, luminescence, kanamycin, BacTiterGlo, confirmation (AID 1900); type: functional, organism-based
# [25] = system: HEK293; test: cells; type: functional, cell-based; conditions: Homo sapiens
# [26] = cells; type: functional, cell-based
# [27] = target: T3, Streptokinase A (Streptococcus pyogenes serotype M1, UniProt P10520); test: S. pyogenes streptokinase expression inhibitors, potency, dose response, plasminogen activation absorbance, OD405 (AID 1914); type: functional, Streptococcus pyogenes M1 GAS;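 note: secreted streptokinase activity via plasminogen activation per viability signal from cell pellet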
# T3 sequence (P10520 whole entry): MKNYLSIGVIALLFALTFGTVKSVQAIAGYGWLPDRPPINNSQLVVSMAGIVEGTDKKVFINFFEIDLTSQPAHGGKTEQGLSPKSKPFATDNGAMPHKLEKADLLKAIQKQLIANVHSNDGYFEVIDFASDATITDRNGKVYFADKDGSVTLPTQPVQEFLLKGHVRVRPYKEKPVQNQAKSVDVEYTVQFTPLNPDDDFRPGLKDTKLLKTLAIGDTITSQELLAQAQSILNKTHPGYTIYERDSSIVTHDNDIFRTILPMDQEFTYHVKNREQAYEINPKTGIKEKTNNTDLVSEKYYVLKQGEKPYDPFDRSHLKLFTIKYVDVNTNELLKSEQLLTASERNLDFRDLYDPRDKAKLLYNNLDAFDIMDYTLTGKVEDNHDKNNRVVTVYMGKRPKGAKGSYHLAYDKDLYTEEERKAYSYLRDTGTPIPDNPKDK
# [28] = system: HEK293; test: cells; type: functional, cell-based; conditions: Homo sapiens; remark: listed apart in the source
# [29] = target: Nucleotide-binding oligomerization domain-containing protein 2 (Homo sapiens, UniProt Q9HC29); test: NOD2 signaling inhibitors, cell-based, luminescence, uHTS, HEK293 (AID 1566); type: functional
# Nucleotide-binding oligomerization domain-containing protein 2, sequence (Q9HC29 whole entry, the tested form may be a part): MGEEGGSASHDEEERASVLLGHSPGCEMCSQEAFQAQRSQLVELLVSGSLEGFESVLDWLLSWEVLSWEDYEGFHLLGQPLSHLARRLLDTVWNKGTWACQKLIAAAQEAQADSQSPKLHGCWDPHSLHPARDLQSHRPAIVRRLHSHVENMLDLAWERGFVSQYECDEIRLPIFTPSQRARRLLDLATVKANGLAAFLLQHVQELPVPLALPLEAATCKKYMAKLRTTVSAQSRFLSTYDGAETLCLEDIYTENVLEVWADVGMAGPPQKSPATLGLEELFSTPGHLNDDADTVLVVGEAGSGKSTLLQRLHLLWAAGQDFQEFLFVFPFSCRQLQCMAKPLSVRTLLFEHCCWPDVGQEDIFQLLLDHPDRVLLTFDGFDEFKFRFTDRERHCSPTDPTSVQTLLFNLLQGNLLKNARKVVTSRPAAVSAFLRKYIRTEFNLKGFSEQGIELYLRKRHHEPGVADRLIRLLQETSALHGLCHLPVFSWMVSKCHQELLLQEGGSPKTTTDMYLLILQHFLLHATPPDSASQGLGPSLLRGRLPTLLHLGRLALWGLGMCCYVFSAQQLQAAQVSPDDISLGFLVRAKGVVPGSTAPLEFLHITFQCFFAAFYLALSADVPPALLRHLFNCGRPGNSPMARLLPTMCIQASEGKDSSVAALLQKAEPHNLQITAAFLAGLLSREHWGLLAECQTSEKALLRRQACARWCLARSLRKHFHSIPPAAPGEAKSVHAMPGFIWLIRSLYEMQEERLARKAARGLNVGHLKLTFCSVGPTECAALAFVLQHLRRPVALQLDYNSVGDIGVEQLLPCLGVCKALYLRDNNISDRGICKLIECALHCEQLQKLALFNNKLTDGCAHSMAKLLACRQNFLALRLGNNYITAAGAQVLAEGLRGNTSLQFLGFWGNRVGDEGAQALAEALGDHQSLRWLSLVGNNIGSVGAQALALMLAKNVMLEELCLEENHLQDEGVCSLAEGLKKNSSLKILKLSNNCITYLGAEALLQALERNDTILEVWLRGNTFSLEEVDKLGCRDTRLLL
# [30] = system: HEK293; test: NOD2 signaling inhibitors in MDP-stimulated cells, cell-based, uHTS, luminescence (AID 2001); type: functional; conditions: Homo sapiens
# [31] = inhibitors of intracellular T. cruzi replication, confirmation, NIH3T3 host cells, beta-gal luminescence (AID 2044); type: functional, cell-based;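 note: intracellular parasites grown in NIH/3T3 mouse fibroblasts as host cells; luminescent beta-galactosidase reporter signal from transgenic T. cruzi replicating inside host cells; inhibitors lower the luminescence signal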
# [32] = system: HEK293; test: cells; type: functional, cell-based; conditions: Homo sapiens; remark: listed apart in the source
# [33] = cells; type: functional, cell-based; remark: listed apart in the source
# [34] = cytotoxicity toward NIH3T3 fibroblasts, dose response, counter-screen, cell-based, ATP luminescence, mouse fibroblasts (AID 2010); type: functional;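 note: cells exposed to compound for about 90 hours before reading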
# [35] = system: Streptococcus; test: Group A Streptococcus viability loss, dose response, counter-screen for streptokinase expression inhibitor project, luminescence, BacTiterGlo (AID 1915); type: functional, organism-based;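 note: potency for reduction of bacterial viability or growth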
# [36] = THP-1 cell cytotoxicity, dose response, cytotoxicity control for non-replicating M. tuberculosis project (AID 489025); type: functional
# [37] = HepG2 cell cytotoxicity, dose response, cytotoxicity control for non-replicating M. tuberculosis project (AID 489018); type: functional; conditions: Mycobacterium tuberculosis
# [38] = target: C-C chemokine receptor type 6 (Homo sapiens, UniProt P51684); test: CCR6 receptor antagonists, dose response, cell-based, luminescent beta-arrestin readout (AID 504728); type: functional
# C-C chemokine receptor type 6, sequence (P51684 whole entry): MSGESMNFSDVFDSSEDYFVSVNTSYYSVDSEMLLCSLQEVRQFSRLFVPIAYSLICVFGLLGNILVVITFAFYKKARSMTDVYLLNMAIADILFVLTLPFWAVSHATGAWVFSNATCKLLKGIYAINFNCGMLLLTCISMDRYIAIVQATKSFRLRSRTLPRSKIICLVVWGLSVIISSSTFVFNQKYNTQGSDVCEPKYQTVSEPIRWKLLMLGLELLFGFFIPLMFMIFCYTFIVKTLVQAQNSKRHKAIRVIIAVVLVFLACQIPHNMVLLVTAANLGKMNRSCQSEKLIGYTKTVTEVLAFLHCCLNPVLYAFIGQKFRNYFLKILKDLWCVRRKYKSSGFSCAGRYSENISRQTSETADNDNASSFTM
# [39] = target: Beta-galactosidase (Escherichia coli, UniProt Q8VNN2); test: beta-galactosidase enzyme inhibitors and activators, dose response, artefact control for CCR6 antagonist project, biochemical, E. coli enzyme, set 3 (AID 504712); type: functional
# [40] = Vero E6 cell cytotoxicity, dose response, cytotoxicity control for non-replicating M. tuberculosis project, secondary assay (AID 492998); type: functional, VeroE6; conditions: Vero C1008
# [41] = target: Nonstructural protein 1 (Influenza A virus, UniProt Q194T2); type: functional, Influenza A virus (A/California/07/2009(H1N1))
# Nonstructural protein 1, sequence (Q194T2 whole entry): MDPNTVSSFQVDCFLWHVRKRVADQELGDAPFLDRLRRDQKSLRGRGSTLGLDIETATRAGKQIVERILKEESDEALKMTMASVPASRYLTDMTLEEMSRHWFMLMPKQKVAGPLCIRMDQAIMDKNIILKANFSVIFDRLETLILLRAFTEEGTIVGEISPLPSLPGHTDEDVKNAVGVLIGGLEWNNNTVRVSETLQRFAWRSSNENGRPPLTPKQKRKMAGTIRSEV
# [42] = target: T4, Microphthalmia-associated transcription factor (Homo sapiens, UniProt O75030); test: TRPM1 promoter luciferase signal decrease, dose response, MITF inhibitor project, cell-based, SK-MEL-5, cherry-picked, set 3 (AID 493073); type: functional
# T4 sequence (O75030 whole entry): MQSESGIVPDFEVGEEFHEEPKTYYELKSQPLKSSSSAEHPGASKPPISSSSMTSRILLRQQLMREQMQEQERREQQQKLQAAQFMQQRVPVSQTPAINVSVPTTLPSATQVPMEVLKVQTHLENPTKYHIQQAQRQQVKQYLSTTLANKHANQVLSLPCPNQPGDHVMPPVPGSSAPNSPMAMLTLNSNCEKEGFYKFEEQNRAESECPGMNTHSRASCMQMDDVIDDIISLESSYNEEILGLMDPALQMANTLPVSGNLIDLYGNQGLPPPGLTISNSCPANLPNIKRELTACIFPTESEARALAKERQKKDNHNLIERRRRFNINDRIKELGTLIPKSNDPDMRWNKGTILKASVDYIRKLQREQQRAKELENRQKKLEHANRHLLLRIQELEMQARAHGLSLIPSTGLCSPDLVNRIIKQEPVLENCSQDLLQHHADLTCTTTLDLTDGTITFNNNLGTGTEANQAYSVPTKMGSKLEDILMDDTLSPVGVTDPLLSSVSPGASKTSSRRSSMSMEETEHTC
# [43] = cells; type: functional
# [44] = system: A-375; test: MITF: Counter assay: A375 proliferation Measured in Cell-Based System Using Plate Reader - 2084-03_Inhibitor_Dose_DryPowder_Activity. [Related pubchem assays (depositor defined):AID488944]; type: functional; conditions: Homo sapiens
# Protein Rev, sequence (P04618 whole entry): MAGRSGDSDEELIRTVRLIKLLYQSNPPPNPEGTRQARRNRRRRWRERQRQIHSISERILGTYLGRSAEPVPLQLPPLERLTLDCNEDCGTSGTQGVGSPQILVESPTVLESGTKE
smiles,measurement,setting,value
Nc1ccc2nonc2c1[N+](=O)[O-],IC50,[1],0.69 µM (active)
same,IC50,[2],0.248 µM (active)
same,AC50,[3],8.03 µM (active)
same,AC50,[4],7.95 µM (active)
same,AC50,[5],7.99 µM (active)
COc1cc(CSc2nnnn2-c2ccc(C)cc2)cc(OC)c1OC,IC50,[6],> 80 µM (inactive)
same,IC50,[7],> 80 µM (inactive)
same,AC50,[8],2.98 µM (active)
same,AC50,[9],1.02 µM (active)
same,AC50,[10],2.51 µM (active)
same,AC50,[11],2.16 µM (active)
same,IC50,[12],1.22 µM (active)
same,EC50,[13],> 29.9 µM (inactive)
same,AC50,[14],4.94 µM (active)
same,AC50,[15],4.54 µM (active)
Clc1ccc(C(Cl)(Cl)Cl)c(Cl)c1,AC50,[16],31.6 µM (inconclusive)
same,AC50,[17],20 µM (inconclusive)
COc1ccc(-c2ccc3oc(-c4ccc(OC)cc4)c(C#CC4(O)CCCCC4)c3c2)cc1,AC50,[18],5.32 µM (active)
same,AC50,[19],29.8 µM (active)
COc1ccc(S(=O)(=O)N(C)C[C@@H]2Oc3c(NC(=O)c4ccncc4)cccc3C(=O)N([C@@H](C)CO)C[C@H]2C)cc1,AC50,[20],32.7 µM (active)
CC(C)(C)c1o[nH]c(=O)c1C[C@H](N)C(=O)O,AC50,[21],1.58 µM (inconclusive)
same,AC50,[22],inconclusive
O=[N+]([O-])c1cc(Cl)cc(/C=N\Nc2ccccn2)c1O,EC50,[23],9.12 µM (active)
same,EC50,[24],3.56 µM (active)
same,IC50,[25],> 20 µM (inactive)
same,EC50,[26],11.8 µM (active)
same,EC50,[27],11.1 µM (active)
same,IC50,[28],> 20 µM (inactive)
same,EC50,[29],> 20 µM (inactive)
same,IC50,[30],> 20 µM (inactive)
same,EC50,[31],0.204 µM (active)
same,IC50,[32],> 20 µM (inactive)
same,EC50,[33],> 350 µM (not active)
same,EC50,[34],5.6 µM (active)
same,EC50,[35],7.53 µM (active)
same,CC50,[36],0.147 µM (active)
same,CC50,[37],0.987 µM (active)
same,IC50,[38],> 66.6 µM (inactive)
same,IC50,[39],> 66.6 µM (inactive)
same,CC50,[40],1.24 µM (active)
same,IC50,[41],3.89 µM (active)
same,AC50,[42],4.49 µM (active)
same,IC50,[43],6.12 µM (active)
same,AC50,[44],40.6 µM (active)
same,AC50,[8],0.964 µM (active)
